Laboratory results as given in patent publication US10722515B2, “Dual CLK/CDK1 inhibitors for cancer treatment” (SRI INTERNATIONAL, priority 2016, dated 2020).
Read-outs that look alike come from different tables or passages of the source.

What was measured:
[1] = biological target: T1, CLK1(h) (Homo sapiens, UniProt P49759); test: radiometric protein kinase assay, CLK1; type: biochemical
T1 construct: purchased Eurofins, Dundee, Scotland
Method: (§1) Enzymatic biochemical activities were evaluated in radiometric protein kinase assays (Eurofins, Dundee, Scotland). Kinases are incubated with buffer, substrate and [γ-^33P]-ATP (specific activity approx. 500 cpm/pmol, concentration as required). The reaction is initiated by the addition of the MgATP mix. After incubation for 40 minutes at room temperature, the reaction is stopped by the addition of 3% phosphoric acid solution. 10 μL of the reaction is then spotted onto a P30 filtermat and washed three times for 5 minutes in 75 mM phosphoric acid and once in methanol prior to drying and scintillation counting.
(§2) All compounds are prepared to 50× final assay concentration in 100% DMSO. Positive control wells contain all components of the reaction with 2% DMSO. Blank wells contain all components of the reaction, with a reference inhibitor replacing the compound of interest. Each kinase is assigned a standard assay concentration of ATP within 20 μM of its apparent KM. Compounds were screened at 1 μM in duplicate or tested at 10 concentrations at half log dilution starting from 10 μM in singlicate. Dose response curves were fitted with four parameter logistic curve to obtain IC50 values. The average coefficient of variation (CV) of the conducted assay is 4.4%.

[2] = biological target: T2, CLK2(h) (Homo sapiens, UniProt P49760); test: radiometric protein kinase assay, CLK2; type: biochemical; conditions: enzyme inhibition, ATP 10 μM
T2 construct: purchased Eurofins, Dundee, Scotland
T2 sequence (P49760 whole entry): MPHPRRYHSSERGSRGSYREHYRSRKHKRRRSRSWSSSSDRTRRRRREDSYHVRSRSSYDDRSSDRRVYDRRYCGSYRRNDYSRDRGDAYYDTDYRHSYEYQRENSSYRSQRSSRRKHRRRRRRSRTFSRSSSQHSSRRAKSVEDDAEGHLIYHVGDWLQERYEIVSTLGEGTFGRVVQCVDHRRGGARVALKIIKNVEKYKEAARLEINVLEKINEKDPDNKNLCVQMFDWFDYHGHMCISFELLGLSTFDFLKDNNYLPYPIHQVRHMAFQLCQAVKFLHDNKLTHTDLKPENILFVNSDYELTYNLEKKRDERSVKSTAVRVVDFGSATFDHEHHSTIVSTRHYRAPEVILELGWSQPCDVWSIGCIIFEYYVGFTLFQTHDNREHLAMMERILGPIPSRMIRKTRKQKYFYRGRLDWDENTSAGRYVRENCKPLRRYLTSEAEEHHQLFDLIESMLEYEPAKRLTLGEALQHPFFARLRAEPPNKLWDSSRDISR
Method: as §1, §2

[3] = biological target: T3, CLK3(h) (Homo sapiens, UniProt P49761); test: radiometric protein kinase assay, CLK3; type: biochemical
T3 construct: purchased Eurofins, Dundee, Scotland
T3 sequence (P49761 whole entry): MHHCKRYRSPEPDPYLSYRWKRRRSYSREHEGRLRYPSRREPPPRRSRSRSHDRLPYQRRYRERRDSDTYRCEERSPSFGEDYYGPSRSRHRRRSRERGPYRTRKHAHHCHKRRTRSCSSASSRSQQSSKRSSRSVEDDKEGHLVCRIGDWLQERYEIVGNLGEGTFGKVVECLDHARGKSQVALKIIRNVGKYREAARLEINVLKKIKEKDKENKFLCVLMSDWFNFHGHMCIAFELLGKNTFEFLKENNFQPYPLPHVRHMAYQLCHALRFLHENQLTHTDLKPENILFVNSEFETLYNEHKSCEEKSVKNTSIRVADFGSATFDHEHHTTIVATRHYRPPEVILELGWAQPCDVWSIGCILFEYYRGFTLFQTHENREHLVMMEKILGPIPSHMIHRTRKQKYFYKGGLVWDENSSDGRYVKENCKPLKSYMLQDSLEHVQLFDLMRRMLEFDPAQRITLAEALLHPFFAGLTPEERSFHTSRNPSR
Method: as §1, §2

[4] = biological target: T4, CLK4(h) (Homo sapiens, UniProt Q9HAZ1); test: radiometric protein kinase assay, CLK4; type: biochemical; conditions: enzyme inhibition, ATP 10 μM
T4 construct: purchased Eurofins, Dundee, Scotland
T4 sequence (Q9HAZ1 whole entry): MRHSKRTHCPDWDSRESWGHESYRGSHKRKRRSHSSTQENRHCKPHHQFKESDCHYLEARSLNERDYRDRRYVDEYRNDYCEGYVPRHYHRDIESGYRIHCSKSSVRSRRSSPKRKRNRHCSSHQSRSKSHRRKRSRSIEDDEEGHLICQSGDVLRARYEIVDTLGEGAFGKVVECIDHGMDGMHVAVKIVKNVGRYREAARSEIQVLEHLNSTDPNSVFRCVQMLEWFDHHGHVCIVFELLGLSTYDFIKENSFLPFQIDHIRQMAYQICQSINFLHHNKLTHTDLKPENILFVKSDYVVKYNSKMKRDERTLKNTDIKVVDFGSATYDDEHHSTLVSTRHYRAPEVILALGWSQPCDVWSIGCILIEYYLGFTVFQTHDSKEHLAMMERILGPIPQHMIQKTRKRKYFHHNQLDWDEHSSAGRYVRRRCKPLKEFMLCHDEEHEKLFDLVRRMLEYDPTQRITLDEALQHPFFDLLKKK
Method: as §1, §2

[5] = biological target: T5, CDK1/cyclinB(h) (Homo sapiens, UniProt P06493); test: radiometric protein kinase assay, CDK1; type: biochemical; conditions: enzyme inhibition, ATP 45 μM
T5 construct: purchased Eurofins, Dundee, Scotland
T5 sequence (P06493 whole entry): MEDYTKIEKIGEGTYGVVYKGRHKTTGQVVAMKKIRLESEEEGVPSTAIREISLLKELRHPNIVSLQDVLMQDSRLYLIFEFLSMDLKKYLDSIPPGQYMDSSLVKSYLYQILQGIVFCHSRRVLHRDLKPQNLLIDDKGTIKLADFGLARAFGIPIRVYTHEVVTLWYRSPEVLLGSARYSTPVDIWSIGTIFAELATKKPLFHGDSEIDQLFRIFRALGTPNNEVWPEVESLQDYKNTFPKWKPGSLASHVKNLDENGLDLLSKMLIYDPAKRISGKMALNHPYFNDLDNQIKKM
T5 sequence (P14635 whole entry partner): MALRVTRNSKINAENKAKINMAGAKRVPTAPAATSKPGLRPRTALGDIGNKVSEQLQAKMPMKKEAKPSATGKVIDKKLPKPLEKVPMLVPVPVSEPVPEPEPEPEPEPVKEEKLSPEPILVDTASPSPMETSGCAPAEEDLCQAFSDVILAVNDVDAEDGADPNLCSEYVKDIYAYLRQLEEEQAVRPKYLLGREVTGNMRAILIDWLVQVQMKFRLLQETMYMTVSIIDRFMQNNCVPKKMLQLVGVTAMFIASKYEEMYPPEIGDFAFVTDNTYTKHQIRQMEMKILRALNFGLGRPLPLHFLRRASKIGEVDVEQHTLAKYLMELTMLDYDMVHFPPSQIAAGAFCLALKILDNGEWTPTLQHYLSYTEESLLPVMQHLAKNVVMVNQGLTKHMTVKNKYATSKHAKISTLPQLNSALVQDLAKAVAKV
Method: as §1, §2

[6] = biological target: T6, CDK4/cyclinD3(h) (Homo sapiens, UniProt P11802); test: radiometric protein kinase assay, CDK4; type: biochemical; conditions: enzyme inhibition, ATP 20 μM
T6 construct: purchased Eurofins, Dundee, Scotland
T6 sequence (P11802 whole entry): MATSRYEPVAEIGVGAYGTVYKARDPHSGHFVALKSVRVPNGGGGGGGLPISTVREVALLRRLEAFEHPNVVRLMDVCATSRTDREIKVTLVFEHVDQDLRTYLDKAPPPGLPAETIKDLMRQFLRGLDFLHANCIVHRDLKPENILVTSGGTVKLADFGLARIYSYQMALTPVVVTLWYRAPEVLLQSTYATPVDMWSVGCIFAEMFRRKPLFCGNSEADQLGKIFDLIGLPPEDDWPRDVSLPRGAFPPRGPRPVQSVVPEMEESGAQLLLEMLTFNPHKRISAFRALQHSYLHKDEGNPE
T6 sequence (P30281 whole entry partner): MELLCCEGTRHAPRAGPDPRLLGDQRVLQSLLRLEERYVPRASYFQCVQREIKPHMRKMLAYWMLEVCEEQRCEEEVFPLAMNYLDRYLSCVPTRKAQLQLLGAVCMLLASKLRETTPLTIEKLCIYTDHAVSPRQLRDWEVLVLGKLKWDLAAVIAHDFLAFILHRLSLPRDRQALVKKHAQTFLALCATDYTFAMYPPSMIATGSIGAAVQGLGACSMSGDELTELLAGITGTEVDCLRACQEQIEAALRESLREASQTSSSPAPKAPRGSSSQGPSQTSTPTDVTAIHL
Method: as §1, §2

[7] = biological target: T7, CDK6/cyclinD3(h) (Homo sapiens, UniProt Q00534); test: radiometric protein kinase assay, CDK6; type: biochemical; conditions: enzyme inhibition, ATP 20 μM
T7 construct: purchased Eurofins, Dundee, Scotland
T7 sequence (Q00534 whole entry): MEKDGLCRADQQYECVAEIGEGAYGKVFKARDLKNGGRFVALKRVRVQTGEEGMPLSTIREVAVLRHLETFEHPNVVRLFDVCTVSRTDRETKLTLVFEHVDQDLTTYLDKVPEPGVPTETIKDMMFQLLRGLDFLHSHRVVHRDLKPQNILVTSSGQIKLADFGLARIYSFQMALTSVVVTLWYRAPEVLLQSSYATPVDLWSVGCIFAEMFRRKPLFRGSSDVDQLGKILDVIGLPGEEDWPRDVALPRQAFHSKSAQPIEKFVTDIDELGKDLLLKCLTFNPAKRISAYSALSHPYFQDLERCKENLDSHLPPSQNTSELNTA
T7 sequence (P30281 whole entry partner): as the sequence (P30281 whole entry partner) above
Method: as §1, §2

[8] = test system: MDM2 alternate splicing in Rh-18 cells; test: Rh-18 MDM2 RT-PCR gel-based assay (orthogonal secondary assay); type: cell-based; conditions: 10 μM, 8 h
Method: These hits were then subjected to a confirmatory assay in the Rh-18 MDM2 RT-PCR gel-based assay at a concentration of 10 μM.
Referring to FIG. 6, cells were exposed to 0.5% DMSO, 0.2 μM sudemycin D6 or […] CGP-74514A for 8 h. Total RNA was extracted by RNeasy Mini Kit (Qiagen). High capacity RNA-to-cDNA kit (Life technologies) was used to convert the RNA to cDNA.
Referring to FIG. 7, cells were exposed to 0.5% DMSO (lane 1), 1 μM sudemycin D6 (lane 2), 10 μM Compound 14 (lane 3), and 10 μM Compound 15 (lane 4) for 8 h. The total RNA was extracted by RNeasy Mini Kit (Qiagen). High capacity RNA-to-cDNA kit (Life technologies) was used to convert the RNA to cDNA. […] Ubiquitin transcripts (165 bp) in the same cells were used as a control (Fan et al. (2011) ACS Chem. Biol. 6: 582-9).

[9] = test system: SK-MEL-2/Luc-MDM2 cells (MDM2-Luc exon-skipping reporter); test: cell-based MDM2-Luc exon-skipping reporter assay; conditions: for MDM2/Luc: luciferase activation vs DMSO control, average of three experiments

T1 sequence (P49759 whole entry): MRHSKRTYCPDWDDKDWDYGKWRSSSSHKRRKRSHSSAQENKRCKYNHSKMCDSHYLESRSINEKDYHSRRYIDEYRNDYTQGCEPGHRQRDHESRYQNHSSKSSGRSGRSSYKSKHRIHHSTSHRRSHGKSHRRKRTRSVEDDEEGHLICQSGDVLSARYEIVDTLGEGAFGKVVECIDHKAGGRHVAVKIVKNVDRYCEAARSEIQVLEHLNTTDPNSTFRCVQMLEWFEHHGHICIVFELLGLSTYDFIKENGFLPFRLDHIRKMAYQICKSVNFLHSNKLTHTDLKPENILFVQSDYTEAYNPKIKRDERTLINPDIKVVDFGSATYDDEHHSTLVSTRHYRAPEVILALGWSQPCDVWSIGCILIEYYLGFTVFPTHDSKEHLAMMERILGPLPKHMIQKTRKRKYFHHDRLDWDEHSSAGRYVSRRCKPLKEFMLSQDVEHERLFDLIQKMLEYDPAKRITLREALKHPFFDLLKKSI

SMILES | IC50 [1] | IC50 [2] | IC50 [3] | IC50 [4] | IC50 [5] | IC50 [6] | IC50 [7] | activity in the Rh-18 MDM2 RT-PCR gel-based confirmatory assay [8] | MDM2/Luc [9] | IC50 ([1]; enzyme inhibition, radiometric, ATP 10 μM, read-out: IC50 (nM) CLK1) | IC50 ([3]; enzyme inhibition, radiometric, ATP 90 μM, read-out: IC50 (nM) CLK3) | luciferase response (Luc fold) in the MDM2-Luc reporter assay ([9]; compared with less potent CLK inhibitors of the series) | MDM2-Luc activity ([9]; result in words, no concentration stated)
CCn1cnc2c(Nc3cccc(Cl)c3)nc(NC3CCCCC3N)nc21 (racemic) [CGP-74514A (1), Racemicm-(Cis-2-Aminocyclohexyl)-N-(3-Chlorophenyl)-9-Ethyl-9H-Purine-2,6-Diamine, reference compound] | 148 nM | 111 nM | > 1000 nM | 104 nM | 382 nM | 573 nM | > 1000 nM | clear activity | Active |  |  |  | 
CC(=O)Nc1cc(Cl)cc(Nc2nc(NC3CCCCC3N)nc3c2ncn3C(C)C)c1 (racemic) [Compound 15, Racemic N-Cis(3-((2-((2-Aminocyclohexyl)Amino)-9-Isopropyl-9H-Purin-6-Yl)Amino)-5-Chlorophenyl)Acetamide] |  | 13 nM |  | 64 nM | > 1000 nM | 930 nM | > 1000 nM | confirmation | Active | 19 nM | > 1000 nM | stronger luciferase response | strong MDM2-Luc activity
